Results reported in patent publication US11001569B2, “6-membered heteroaromatic substituted cyanoindoline derivatives as NIK inhibitors” (Janssen Pharmaceutica NV, priority 2016, dated 2021).
Read-outs that look alike come from different tables or passages of the source.

How the values were obtained:
[1] = tested on: KMS12-BM (NIK WT) multiple myeloma cells; assay: Antiproliferative activity on KMS12-BM multiple myeloma cells (CellTiter-Glo); type: cell-based, human; conditions: 96 hr treatment, averaged values, read-out: KMS-12 Proliferation inhibition (IC50 (nM))
Summary of the method: (§1)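 Cells plated at 15000 (JJN3) or 20000 (KMS12BM) per well and treated 96 h at 37° C, 5% CO2, final DMSO 0.3%, 9-point 1:3 dilutions. Viability by CellTiter-Glo luminescence; time-zero blank subtracted, growth expressed as percent of untreated control.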

[2] = tested on: P-IKKα levels in L363 (NIK translocated multiple myeloma) cells; assay: Effect of compounds on P-IKKα levels in L363 cells (Mesoscale sandwich immuno-assay); type: cell-based, human; conditions: 2 hr treatment, averaged values, read-out: Inhibition of pIKKα_L-363 (IC50 (nM))
Summary of the method: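 BAFF-stimulated (1 μg/ml stock) L363 cells preincubated 24 hr at 37° C, then treated 2 hr with compound (final 1% DMSO, 8-point 1:3 dilutions). Lysate P-IKKα measured by Mesoscale sandwich immunoassay; IC50 from sigmoidal fit of % inhibition versus log concentration.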

[3] = biological target: recombinant human NF-kappaB-inducing Kinase (NIK/MAP3K14) (Homo sapiens, UniProt Q99558); assay: Inhibition of auto-phosphorylation of recombinant human NIK/MAP3K14 activity (AlphaScreen); type: biochemical; conditions: 25 microM ATP, averaged over all measurements on all batches
Sequence of recombinant human NF-kappaB-inducing Kinase (NIK/MAP3K14) (Q99558 whole entry): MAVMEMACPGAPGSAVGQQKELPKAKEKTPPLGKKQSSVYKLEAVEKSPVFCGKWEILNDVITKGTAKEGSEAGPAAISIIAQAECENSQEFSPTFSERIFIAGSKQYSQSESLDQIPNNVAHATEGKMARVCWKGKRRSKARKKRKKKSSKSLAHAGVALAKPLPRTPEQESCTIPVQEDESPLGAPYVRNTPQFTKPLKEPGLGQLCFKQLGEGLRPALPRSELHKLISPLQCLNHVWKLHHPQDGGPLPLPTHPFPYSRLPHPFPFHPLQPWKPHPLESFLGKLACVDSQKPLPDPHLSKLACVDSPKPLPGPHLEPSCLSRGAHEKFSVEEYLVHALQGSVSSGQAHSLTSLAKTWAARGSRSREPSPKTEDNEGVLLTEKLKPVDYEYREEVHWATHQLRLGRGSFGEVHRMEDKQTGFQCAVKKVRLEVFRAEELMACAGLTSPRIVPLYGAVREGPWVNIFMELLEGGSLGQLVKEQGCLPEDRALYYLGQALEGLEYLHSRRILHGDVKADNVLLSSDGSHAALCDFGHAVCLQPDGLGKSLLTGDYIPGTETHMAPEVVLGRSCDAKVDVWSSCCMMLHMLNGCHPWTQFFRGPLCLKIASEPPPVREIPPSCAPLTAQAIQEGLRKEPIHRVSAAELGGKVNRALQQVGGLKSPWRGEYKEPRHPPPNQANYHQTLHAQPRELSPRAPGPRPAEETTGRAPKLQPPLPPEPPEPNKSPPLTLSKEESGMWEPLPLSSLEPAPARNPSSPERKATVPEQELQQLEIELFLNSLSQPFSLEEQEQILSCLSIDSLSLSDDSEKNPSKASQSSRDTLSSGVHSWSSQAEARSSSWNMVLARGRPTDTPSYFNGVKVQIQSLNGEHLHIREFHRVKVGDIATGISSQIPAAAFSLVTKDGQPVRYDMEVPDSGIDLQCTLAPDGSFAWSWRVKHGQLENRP

[4] = tested on: JJN-3 (NIK translocated) multiple myeloma cells; assay: Antiproliferative activity on JJN-3 multiple myeloma cells (CellTiter-Glo); type: cell-based, human; conditions: JJN-3 (NIK translocated) cells, 96 hr treatment, averaged values, read-out: JJN-3 Proliferation inhibition (IC50 (nM))
Summary of the method: as §1

SMILES | IC50 ([1]; Homo sapiens, KMS-12-BM, 96 h) [nM] | melting point [°C] | IC50 ([2]; Homo sapiens, L-363, 2 h) [nM] | IC50 [3] [nM] | IC50 ([4]; Homo sapiens, JJN-3, 96 h) [nM] | IC50 [2] [nM] | IC50 [1] [nM] | IC50 [4] [nM]
CCCCc1ncc(C#N)cc1Nc1nccc(-c2cc(C#N)c3c(c2)[C@@](C)(CO)CN3)n1 [Compound 66] | > 10000 | 178 | ~141 | 3.3 | 41 | – | – | –
COCCOc1ncc(C)cc1Nc1nccc(-c2cc(C#N)c3c(c2)[C@@](C)(CO)CN3)n1 [Compound 69] | > 10000 | 186 | ~129 | 3.2 | 263 | – | – | –
Cc1nc(/C=C/C(=O)N(C)C)ccc1Nc1nccc(-c2cc(C#N)c3c(c2)[C@@](C)(CO)CN3)n1 [Compound 73] | ~234 | 231 | ~13 | 1.6 | 144 | – | – | –
C[C@]1(CO)CNc2c(C#N)cc(-c3ccnc(Nc4cc(C#N)cnc4OCC4CC4)n3)cc21 [Compound 74] | > 10000 | 206 | ~120 | 16.2 | 141 | – | – | –
CC(C)(O)COc1ncc(C#N)cc1Nc1nccc(-c2cc(C#N)c3c(c2)[C@@](C)(CO)CN3)n1 [Compound 77] | > 10000 | 162 | 25.7 | 5 | 60 | – | – | –
CC(C)(O)c1ccc(Nc2nccc(-c3cc(C#N)c4c(c3)[C@@](C)(CO)CN4)n2)c(CCC2CC2)n1 [Compound 81] | > 10000 | 318 | 20.9 | 4.7 | 513 | – | – | –
Cc1cnc(OCC2CC2)c(Nc2nccc(-c3cc(C#N)c4c(c3)[C@@](C)(CO)CN4)n2)c1 [Compound 86] | > 10000 | 206 | 53.7 | 12 | 1180 | – | – | –
CN(C)C(=O)/C=C/c1ccc(Nc2nccc(-c3cc(C#N)c4c(c3)[C@@](C)(CO)CN4)n2)c(CCC2CC2)n1 [Compound 88] | > 10000 | 198 | 22.4 | 4.2 | 148 | – | – | –
CN(C)C(=O)CCc1ccc(Nc2nccc(-c3cc(C#N)c4c(c3)[C@@](C)(CO)CN4)n2)c(CCC2CC2)n1 [Compound 89] | > 10000 | 301 | 14.8 | 3.6 | 912 | – | – | –
COc1nc(-c2cnn(C)c2)c(C)cc1Nc1nccc(-c2cc(C#N)c3c(c2)[C@@](C)(CO)CN3)n1 [Compound 91] | > 10000 | 166 | 5.4 | 8.9 | 81 | – | – | –
CNC(=O)c1cnc(C)c(Nc2nccc(-c3cc(C#N)c4c(c3)[C@@](C)(CO)CN4)n2)c1 [Compound 93] | 9550 | 165 | 5.6 | 2.1 | 1440 | – | – | –
Cc1cnc(OC2CCN(C)CC2)c(Nc2nccc(-c3cc(C#N)c4c(c3)[C@@](C)(CO)CN4)n2)c1 [Compound 146] | 7080 | 135 | 4.1 | 2.8 | 5.2 | – | – | –
Cc1cnc(CCN2CC(F)C2)c(Nc2nccc(-c3cc(C#N)c4c(c3)[C@@](C)(CO)CN4)n2)c1 [Compound 150] | > 10000 | 171 | 25.7 | 12 | 132 | – | – | –
Cc1cnc(CO)cc1Nc1nccc(-c2cc(C#N)c3c(c2)[C@@](C)(CO)CN3)n1 [Compound 156] | ~6460 | 245 | 6.3 | 2.3 | 105 | – | – | –
Cc1cc(Nc2nccc(-c3cc(C#N)c4c(c3)[C@@](C)(CO)CN4)n2)c(OC(C)C)nc1CCN1CC(F)C1 [Compound 157] | > 10000 | 173 | 25.7 | 9.3 | 62 | – | – | –
Cc1cc(Nc2nccc(-c3cc(C#N)c4c(c3)[C@@](C)(CO)CN4)n2)c(C)nc1OCC1(C)COC1 [Compound 159] | > 10000 | 179 | 5.9 | 5.6 | 89 | – | – | –
Cc1cc(Nc2nccc(-c3cc(C#N)c4c(c3)[C@@](C)(CO)CN4)n2)c(C)nc1OCC1COC1 [Compound 160] | > 10000 | 189 | 2.1 | 3.9 | 115 | – | – | –
COc1cnc(C)cc1Nc1nccc(-c2cc(C#N)c3c(c2)[C@@](C)(CO)CN3)n1 [Compound 162] | > 10000 | > 260 | 1.3 | 3 | 60 | – | – | –
Cc1ncc(C2CCN(C)CC2)cc1Nc1nccc(-c2cc(C#N)c3c(c2)[C@@](C)(CO)CN3)n1 [Compound 164] | 1660 | 121 | 1180 | 102 | 1180 | – | – | –
Cc1cnc(C2CCOCC2)c(Nc2nccc(-c3cc(C#N)c4c(c3)[C@@](C)(CO)CN4)n2)c1 [Compound 173] | > 10000 | 225 | 69.2 | 15.1 | 933 | – | – | –
COc1ncc(C(F)(F)F)cc1Nc1nccc(-c2cc(C#N)c3c(c2)[C@@](C)(CO)CN3)n1 [Compound 183] | > 10000 | 209 | 40.7 | 15.8 | 63 | – | – | –

Further compounds by falling IC50 [3], results first:

IC50 ([1]; Homo sapiens, KMS-12-BM, 96 h) [nM] | melting point [°C] | IC50 ([2]; Homo sapiens, L-363, 2 h) [nM] | IC50 [3] [nM] | IC50 ([4]; Homo sapiens, JJN-3, 96 h) [nM] | IC50 [2] [nM] | IC50 [1] [nM] | IC50 [4] [nM] | SMILES
> 10000 | 156 | 110 | 15.1 | 49 | – | – | – | Cc1cnc(CCNC2CC2)c(Nc2nccc(-c3cc(C#N)c4c(c3)[C@@](C)(CO)CN4)n2)c1 [Compound 182]
– | 220 | – | 12 | – | 19.5 | ~2880 | 81 | Cc1cnc(OC2CCN(C)CC2F)c(Nc2nccc(-c3cc(C#N)c4c(c3)[C@@](C)(CO)CN4)n2)c1 (some centres unmarked) [Compound 155]
– | 185 | – | 7.2 | – | 3 | ~7940 | 148 | Cc1cnc(OC2CN(C)CC2F)c(Nc2nccc(-c3cc(C#N)c4c(c3)[C@@](C)(CO)CN4)n2)c1 (some centres unmarked) [Compound 154]
~5890 | 180 | – | 5.8 | 240 | 9.3 | – | – | Cc1cnc(OC2CN(C)CC2F)c(Nc2nccc(-c3cc(C#N)c4c(c3)[C@@](C)(CO)CN4)n2)c1 (some centres unmarked) [Compound 153]
> 10000 | 115 | 21.4 | 5.5 | 205 | – | – | – | COCCCc1ncc(C)cc1Nc1nccc(-c2cc(C#N)c3c(c2)[C@@](C)(CO)CN3)n1 [Compound 177]
> 10000 | 162 | 26.9 | 5.1 | > 10000 | – | – | – | CC1(COc2ncc(C#N)cc2Nc2nccc(-c3cc(C#N)c4c(c3)[C@@](C)(CO)CN4)n2)COC1 [Compound 76]
> 10000 | 260 | 2.4 | 3 | 39 | – | – | – | COc1nc(C)c(Nc2nccc(-c3cc(C#N)c4c(c3)[C@@](C)(CO)CN4)n2)cc1C [Compound 168]
4900 | > 260 | 9.9 | 2.7 | 263 | – | – | – | Cc1ncc(CO)cc1Nc1nccc(-c2cc(C#N)c3c(c2)[C@@](C)(CO)CN3)n1 [Compound 169]
> 10000 | 263 | 2.8 | 1.7 | 30 | – | – | – | Cc1cc(Nc2nccc(-c3cc(C#N)c4c(c3)[C@@](C)(CO)CN4)n2)c(C)cn1 [Compound 167]
> 10000 | 279 | 1 | 1.1 | 5 | – | – | – | Cc1cnc(C#N)cc1Nc1nccc(-c2cc(C#N)c3c(c2)[C@@](C)(CO)CN3)n1 [Compound 170]
